Results published in article PMC10671431, “New Derivatives of N-Hydroxybutanamide: Preparation, MMP Inhibition, Cytotoxicity, and Antitumor Activity” (International Journal of Molecular Sciences, 2023).

Assays:
FetMSC = experiment: Cytotoxicity, MTT test; type: cell-based, human; conditions: Homo sapiens; 72 h of exposure, MTT
Procedure: (§1) Cell culture. A-172 (human glioblastoma cells), HepG2 (human hepatocellular carcinoma cells), M-HeLa (human cervical adenocarcinoma cells, M subclone), Vero (African green monkey kidney epithelial cells), and FetMSC (human embryonic mesenchymal stem cells) were purchased from the Russian Collection of Cell Cultures of Vertebrates (Institute of Cytology RAS, St. Petersburg, Russia). The U-251 MG cell line (human glioblastoma-astrocytoma) was purchased from the European Collection of Authenticated Cell Cultures (Salisbury, UK). All cells were grown at 37 °C in an atmosphere of 5% CO2. A-172 and Vero cells were cultured in DMEM medium (PanEco, Moscow, Russia). HepG2, HeLa, and U-251 MG cells were cultured in EMEM medium (PanEco). FetMSC cells were cultured in F12/DMEM medium (PanEco). All incubation media were supplemented with 10% fetal calf serum (BioWest, Nuaillé, France), 50 U/mL penicillin, and […] streptomycin (PanEco). Additionally, media for HeLa, HepG2, and U-251 MG cells were supplemented with 2 mM glutamine (PanEco) and 1% essential amino acids (PanEco), media for A-172 and Vero cells were supplemented with 4 mM glutamine, and the medium for FetMSC cells was supplemented with 3 mM glutamine. The medium for U-251 MG cells was additionally supplemented with 1 mM sodium pyruvate (PanEco).
(§2) Cytotoxicity studies. The cytotoxicity of the compounds was assessed using the MTT test. Cells were seeded into 96-well plates at varying concentrations of 5 × 10^4 cells/mL (A-172, Vero and HeLa), 7 × 10^4 cells/mL (HepG2 and U-251 MG), and 10 × 10^4 cells/mL (FetMSC). The studied compounds were added to the incubation medium 24 h after seeding at concentrations ranging from 7.8 μM to 500 μM. All compounds were dissolved in DMSO and diluted with the incubation medium to their final concentrations just before use. The incubation medium in wells was aspirated and replaced with medium containing the studied compounds. The final concentration of DMSO in all samples was 0.1%. Control samples were treated with 0.1% DMSO. After 72 h of exposure, 3-(4,5-dimethylthiazol-2-yl)-2,5-diphenyl-2H-tetrazolium bromide (MTT) (Dia-M, Moscow, Russia) was added to the incubation medium at a concentration of 0.5 mg/mL. The resulting MTT-formazan crystals were dissolved in DMSO. The optical density was measured at 570 nm with a background wavelength of 620 nm using a Spark 10M plate reader. IC50 values were determined using a median effect analysis from the dose–effect relationships.

HepG2 = experiment: Cytotoxicity, MTT test; type: cell-based, human; conditions: Homo sapiens, HepG2, 72 h of exposure
Procedure: as §1, §2

HeLa = experiment: Cytotoxicity, MTT test; type: cell-based, human; conditions: Homo sapiens, HeLa, 72 h of exposure
Procedure: as §1, §2

A-172 = experiment: Cytotoxicity, MTT test; type: cell-based, human; conditions: Homo sapiens, A 172, 72 h of exposure
Procedure: as §1, §2

Vero = experiment: Cytotoxicity, MTT test; type: cell-based, African green monkey; conditions: Chlorocebus sabaeus, Vero, 72 h of exposure
Procedure: as §1, §2

[1] = Cytotoxicity, MTT test, statements on all cell lines studied; type: cell-based; conditions: human, African green monkey, 72 h of exposure, summary over cell lines, read-out: cytotoxicity IC50, cells in general
Procedure: as §1, §2

U-251 MG = experiment: Cytotoxicity, MTT test; type: cell-based; conditions: Homo sapiens, 72 h of exposure
Procedure: as §1, §2

MMP-14 = biological target: T1, MMP-14 (Homo sapiens, UniProt P50281); experiment: MMP activity assay, fluorogenic substrate (MMP Inhibitor Profiling Kit); type: biochemical; conditions: read-out: MMP-inhibiting activity IC50, MMP-14
T1 construct: the BML- prefix points to Enzo Life Sciences, own knowledge BML-AK308
Procedure: (§3) Determination of MMP activity. A fluorescently labeled substrate probe containing a fluorescent label and a fluorescence quencher, was utilized for this study. […] Enzyme activity was assessed using the MMP Inhibitor Profiling Kit (Product # BML-AK308, New York, NY, USA) according to the manufacturer’s recommendations. The nonspecific inhibitor NNGH was used as a positive control. The fluorescence of the fluorogenic substrate OmniMMP^TM RED was measured at wavelengths Ex/Em = 545/576 nm using a Spark 10M multimode plate reader (Tecan, Zurich, Switzerland). Reaction rates were expressed in relative fluorescence units (RFUs) per minute. The activity of MMPs in the presence of the studied compounds was determined as follows:Activity, % = (Vinh/Vcont) × 100,(1) where V is the initial reaction rate (RFUs/min) in the presence (Vinh) and absence (Vcont) of the studied compounds.
(§4) All tested compounds were dissolved in DMSO. The final concentration of DMSO in all samples was 0.1%. Control samples were treated with 0.1% DMSO.

MMP-2 = biological target: T2, MMP-2 (Homo sapiens, UniProt P08253); experiment: as above; type: biochemical; conditions: read-out: MMP-inhibiting activity IC50, MMP-2
T2 construct: the BML- prefix points to Enzo Life Sciences, own knowledge BML-AK308
T2 sequence (P08253 110-446 limits assumed): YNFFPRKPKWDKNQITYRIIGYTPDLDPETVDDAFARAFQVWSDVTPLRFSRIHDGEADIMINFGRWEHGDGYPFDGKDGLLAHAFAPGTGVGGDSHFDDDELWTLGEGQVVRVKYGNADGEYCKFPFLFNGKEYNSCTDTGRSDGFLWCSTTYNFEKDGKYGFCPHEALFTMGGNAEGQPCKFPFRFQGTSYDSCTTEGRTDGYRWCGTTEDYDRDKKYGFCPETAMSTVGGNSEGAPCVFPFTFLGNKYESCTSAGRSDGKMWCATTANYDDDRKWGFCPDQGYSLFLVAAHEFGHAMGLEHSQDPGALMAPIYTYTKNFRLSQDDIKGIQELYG
Procedure: as §3, §4

MMP-3 = biological target: T3, MMP-3 (Homo sapiens, UniProt P08254); experiment: as above; type: biochemical; conditions: read-out: MMP-inhibiting activity IC50, MMP-3
T3 construct: the BML- prefix points to Enzo Life Sciences, own knowledge BML-AK308
T3 sequence (P08254 100-272 limits assumed): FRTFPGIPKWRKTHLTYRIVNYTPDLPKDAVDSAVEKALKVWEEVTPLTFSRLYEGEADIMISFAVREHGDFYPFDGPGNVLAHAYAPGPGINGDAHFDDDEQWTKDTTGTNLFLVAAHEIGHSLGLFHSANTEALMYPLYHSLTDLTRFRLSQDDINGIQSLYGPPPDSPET
Procedure: as §3, §4

MMP-9 = biological target: T4, MMP-9 (Homo sapiens, UniProt P14780); experiment: as above; type: biochemical; conditions: read-out: MMP-inhibiting activity IC50, MMP-9
T4 construct: the BML- prefix points to Enzo Life Sciences, own knowledge BML-AK308
T4 sequence (P14780 107-444 limits assumed): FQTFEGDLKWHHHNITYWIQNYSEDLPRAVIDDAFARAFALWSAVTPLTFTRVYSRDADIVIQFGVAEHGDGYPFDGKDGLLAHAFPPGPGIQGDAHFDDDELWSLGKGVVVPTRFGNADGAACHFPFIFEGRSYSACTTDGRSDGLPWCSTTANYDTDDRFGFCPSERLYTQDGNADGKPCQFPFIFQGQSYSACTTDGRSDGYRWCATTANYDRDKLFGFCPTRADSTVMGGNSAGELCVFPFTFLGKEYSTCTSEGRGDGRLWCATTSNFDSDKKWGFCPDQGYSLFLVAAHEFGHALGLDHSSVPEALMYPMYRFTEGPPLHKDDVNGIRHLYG
Procedure: as §3, §4

[2] = test system: pancreatic carcinoma cells MiaPaCa2; set-up: method as in PMID 24022491; conditions: 5 μM, 24 h of exposure; cited from earlier work
[3] = test system: pancreatic carcinoma cells CD18; set-up: method as in PMID 24022491; conditions: 5 μM, 24 h of exposure; cited from earlier work
[4] = test system: hamster pancreatic cancer cell line PGHAM-1; set-up: method as in PMID 11291083; conditions: 72 h of exposure, cited from earlier work
[5] = test system: CAC-1 cells (human cervical adenocarcinoma); set-up: method as in PMID 11925127; conditions: 72 h of exposure, cited from earlier work
[6] = test system: human hepatocellular carcinoma cells HepG2; set-up: method as in doi:10.17265/1934-7375/2015.06.002; conditions: 72 h of exposure, cited from earlier work
[7] = test system: mouse breast carcinoma cells 4T1; set-up: method as in PMID 31637006; conditions: concentrations up to 50 μg/mL (150.87 μM), 48 h of exposure; cited from earlier work
human glioma U-251 cells = test system: human glioma U-251 cells; set-up: method as in PMID 10048980; conditions: 10 μM, 96 h of exposure; cited from earlier work
[8] = test system: human histiocytic lymphoma cells U-937; set-up: method as in doi:10.17265/1934-7375/2015.06.002; conditions: 72 h of exposure, cited from earlier work
[9] = test system: human breast carcinoma cells MDA-MB-435; set-up: method as in PMID 31637006; conditions: concentrations up to 50 μg/mL (150.87 μM), 48 h of exposure; cited from earlier work
[10] = test system: hamster peritoneal macrophages; conditions: 72 h of exposure; cited from earlier work
[11] = test system: co-cultured neonatal rat ventricular fibroblasts and myocytes; set-up: method as in PMID 19365278; conditions: 24 h of exposure; cited from earlier work
gelatinase A (MMP-2) = biological target: gelatinase A (MMP-2); set-up: method as in earlier work; conditions: read-out: IC50 for gelatinase A (MMP-2) inhibition; cited from earlier work

COc1ccccc1C(=O)NNC(=O)CCC(=O)NO [Compound 5, N-hydroxy-4-[2-(2-methoxybenzoyl)hydrazinyl]-4-oxobutanamide]
IC50 (FetMSC): > 500 µM | IC50 (HepG2): 221 ± 12.6 µM | IC50 (HeLa): 194 ± 13.4 µM | IC50 (A-172): > 500 µM | IC50 (Vero): > 500 µM | IC50 at 72 h [1]: > 100 µM | IC50 (U-251 MG): > 500 µM | IC50 (MMP-14): > 10 µM | IC50 (MMP-2): > 10 µM | IC50 (MMP-3): > 10 µM | IC50 (MMP-9): > 10 µM

CNC(=O)[C@@H](NC(=O)[C@H](CCCc1ccccc1)[C@H](C)N(O)C=O)C(C)(C)C [GI254023X]
toxicity to cells [2]: toxic | toxicity to cells [3]: toxic

O=C(O)[C@@H](Cc1c[nH]c2ccccc12)NS(=O)(=O)c1ccc(-c2nnn(-c3ccccc3)n2)cc1 [MMI-166]
cytotoxicity IC50 [4]: higher than 100 μg/mL | IC50 ([4]; read-out: cytotoxicity IC50): > 205 µM | cytotoxicity IC50 [5]: higher than 50 μg/mL | IC50 ([5]; read-out: cytotoxicity IC50): > 102 µM

CNC(=O)[C@@H](NC(=O)[C@H](CC(C)C)[C@H](O)C(=O)NO)C(C)(C)C [Marimastat]
cytotoxicity IC50 [6]: higher than 200 μg/mL | IC50 ([6]; read-out: cytotoxicity IC50): > 603 µM | effect on cells [7]: no effect | reduction in cell viability (human glioma U-251 cells): 20–40% | cytotoxicity IC50 [8]: 10.8 µg/mL | IC50 ([8]; read-out: cytotoxicity IC50): 32.6 µM | effect on cells [9]: no effect | cytotoxicity IC50 [10]: higher than 200 μg/mL

CC(C)[C@H](NS(=O)(=O)c1ccc(-c2ccc(Br)cc2)cc1)C(=O)O [PD166793]
concentrations toxic to cells [11]: above 100 μM

C=C[C@H]1C[C@@H](C)C[C@@H](C)[C@@H]1c1c(O)ccn(O)c1=O [pyridoxatin]
IC50 (gelatinase A (MMP-2)): 15.2 µM
